From ChEMBL document CHEMBL1201862, “PubChem BioAssay data set” (2004)
Active and inactive are the calls of the source.

Tests used:
[1] = reduction of Shn3 3'UTR-driven luciferase in osteoblasts – cell-based, Clone20 osteoblasts, firefly luciferase, cherry-picked, dose response (AID 624132); type: functional;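 note: firefly luciferase luminescence from reporter carrying the Shn3 3'UTR in osteoblasts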
[2] = loss of viability in HepG2 cells – cell-based, CellTiter-Glo, cherry-picked, cytotoxicity control for Shn3 inhibitor project, dose response (AID 624134); type: functional
[3] = non-specific 3'UTR reporter inhibition in Clone20-Shn3RL – cell-based, Renilla luciferase, cherry-picked, counter-screen for Shn3 inhibitor project, dose response (AID 624133); type: functional
[4] = viability loss in THP-1 monocytes – THP-1 cells, cytotoxicity control for Vif-APOBEC3G degradation inhibitor project, dose response (AID 1117359); type: functional; conditions: THP-1
Estrogen receptor beta [5] = molecular target: T1, Estrogen receptor beta (Homo sapiens, UniProt Q92731); assay: blockers of SRC-3 recruitment to ERβ – biochemical, ELISA, streptavidin-HRP readout, orthogonal assay, confirmation (AID 1060)
T1 sequence (Q92731 whole entry): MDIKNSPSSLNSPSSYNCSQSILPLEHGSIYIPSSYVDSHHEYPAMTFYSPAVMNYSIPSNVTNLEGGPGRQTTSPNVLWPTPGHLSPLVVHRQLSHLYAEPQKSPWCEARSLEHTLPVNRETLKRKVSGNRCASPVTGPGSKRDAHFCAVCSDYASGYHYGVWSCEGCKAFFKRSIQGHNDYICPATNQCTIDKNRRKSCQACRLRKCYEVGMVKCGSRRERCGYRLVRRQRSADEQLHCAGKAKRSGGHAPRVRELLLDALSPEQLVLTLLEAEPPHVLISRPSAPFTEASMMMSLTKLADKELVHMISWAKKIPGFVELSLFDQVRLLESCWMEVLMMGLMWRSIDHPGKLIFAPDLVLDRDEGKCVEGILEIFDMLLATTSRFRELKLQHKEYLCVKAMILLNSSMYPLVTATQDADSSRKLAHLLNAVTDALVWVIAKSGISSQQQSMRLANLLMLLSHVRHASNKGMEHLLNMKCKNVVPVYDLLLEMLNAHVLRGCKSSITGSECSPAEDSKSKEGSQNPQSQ

Estrogen receptor beta [6] = molecular target: T1, Estrogen receptor beta
[7] = molecular target: Glyceraldehyde-3-phosphate dehydrogenase (Homo sapiens, UniProt P04406)
Glyceraldehyde-3-phosphate dehydrogenase, sequence (P04406 whole entry, the tested form may be a part): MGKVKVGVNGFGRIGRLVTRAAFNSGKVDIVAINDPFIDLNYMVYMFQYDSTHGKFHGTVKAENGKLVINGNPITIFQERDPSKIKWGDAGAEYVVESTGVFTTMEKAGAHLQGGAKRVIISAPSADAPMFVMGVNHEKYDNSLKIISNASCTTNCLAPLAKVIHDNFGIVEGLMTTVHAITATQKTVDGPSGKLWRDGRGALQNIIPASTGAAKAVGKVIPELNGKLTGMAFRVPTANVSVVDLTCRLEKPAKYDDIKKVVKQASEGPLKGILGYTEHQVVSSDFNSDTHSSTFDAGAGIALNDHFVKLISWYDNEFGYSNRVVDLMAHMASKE

[8] = molecular target: T2, Carboxy-terminal domain RNA polymerase II polypeptide A small phosphatase 1 (Homo sapiens, UniProt Q9GZU7); assay: CTDSP1 inhibitors, concentration-response, biochemical, absorbance readout, ultra-high-throughput screen actives (AID 540297); type: functional
T2 sequence (Q9GZU7 whole entry): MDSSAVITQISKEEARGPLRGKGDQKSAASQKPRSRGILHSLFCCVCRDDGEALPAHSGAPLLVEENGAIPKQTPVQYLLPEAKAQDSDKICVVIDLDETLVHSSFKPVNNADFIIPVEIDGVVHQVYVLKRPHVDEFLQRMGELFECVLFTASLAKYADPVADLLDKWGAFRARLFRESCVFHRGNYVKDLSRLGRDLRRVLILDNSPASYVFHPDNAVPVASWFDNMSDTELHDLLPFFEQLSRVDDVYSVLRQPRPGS

HEK293 = assay: EBV LMP1 TES2 canonical NF-kB signalling blockers – cell-based, HEK293, luciferase, cherry-pick, dose response (AID 588343); type: functional; conditions: Homo sapiens

What does the source list for `O=C1CSc2ccc(C(=O)Nc3cccc(S(=O)(=O)Nc4ccc(Br)cc4)c3)cc2N1`?
AC50 [1]: 3.08 µM (active); AC50 [2]: 45.6 µM (active); AC50 [3]: 8.81 µM (active)

Which AC50 [1] does the source give for `Cc1nc2ccc(NS(=O)(=O)c3ccc4c(c3)OCCO4)cc2s1` here?
The AC50 was 0.635 µM (active).

And the AC50 [2]?
The AC50 was 4.15 µM (active).

And the AC50 [3]?
Its AC50 is > 70 µM (inactive).

For `COc1ccc(S(=O)(=O)N2CCN(C(=O)c3cc(-c4ccccc4OC)[nH]n3)CC2)cc1`, which CC50 [4] is on record?
The CC50 was > 40 µM (active).

With `CCOc1ccc2nc(NC(=O)CCC(=O)c3cccs3)sc2c1` as the compound, how does the IC50 (Estrogen receptor beta [5]) read?
The IC50 was 0.0637 µM (not active).

What about the IC50 (Estrogen receptor beta [6]) of the same compound?
The IC50 was 9.84 µM (active).

Which IC50 [7] does the source give for `COc1cccc(N2C(=O)C(Cl)=C(N3CCN(Cc4ccccc4)CC3)C2=O)c1` here?
Its IC50 is > 50 µM (inconclusive).

For `CC1C=CC=CC=CC=CC=CC=CC=CC(OC2OC(C)C(O)C(N)C2O)CC2OC(O)(CC(O)CC(O)C(O)CCC(O)CC(O)CC(=O)OC(C)C(C)C1O)CC(O)C2C(=O)O` (stereo not drawn), which IC50 [8] is on record?
The IC50 was 1.17 µM (active).

And the CC50 [4]?
The CC50 was 3.14 µM (active).

Which AC50 (HEK293) does the source give for `Cc1cc(C(=O)COC(=O)c2cccc(NS(C)(=O)=O)c2)c(C)n1CC1CCCO1` (stereo not drawn) here?
Its AC50 is 3.15 µM (active).
